The record followed here is publication PMC12095047, “Transport of phenoxyacetic acid herbicides by PIN-FORMED auxin transporters” (Nature Plants, 2025).

“And” between values parts separate entries of the source, which are not always exact repeats. Identical values can stand only once. Like-named read-outs stand apart in the source and are kept apart here.

In one assay the target is T1, A. thaliana PIN8 (Arabidopsis thaliana, UniProt Q9LFP6).
T1 construct: made in house
T1 sequence (Q9LFP6 1-367): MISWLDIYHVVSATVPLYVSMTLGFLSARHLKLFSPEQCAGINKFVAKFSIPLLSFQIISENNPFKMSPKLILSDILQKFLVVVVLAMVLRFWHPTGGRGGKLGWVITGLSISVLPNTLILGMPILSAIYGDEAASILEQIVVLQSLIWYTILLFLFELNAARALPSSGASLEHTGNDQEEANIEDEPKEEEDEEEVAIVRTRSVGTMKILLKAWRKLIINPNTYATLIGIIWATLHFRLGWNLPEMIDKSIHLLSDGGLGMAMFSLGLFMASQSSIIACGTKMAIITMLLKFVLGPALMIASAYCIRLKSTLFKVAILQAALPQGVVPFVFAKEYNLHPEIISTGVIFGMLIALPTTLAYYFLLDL
Nature of the assay: SSM electrophysiology, peak current response on PIN8 proteoliposomes. It counts as biochemical. The conditions noted are these: for Peak current: individual sensors; for EC50 / maximal current Imax: WT PIN8 proteoliposomes, Michaelis–Menten fit; for Peak current (nA): Sensor 1-3. How it is done:
(§1) SSM, using a SURFE2R N1 from Nanion Technologies, was conducted as described. In brief, soy polar lipid mix (38% phosphatidyl choline, 30% phosphatidyl ethanolamine, 18% phosphatidyl inositol, 7% phosphatidic acid and 7% other soy lipids) and 1-palmitoyl-2-oleoyl-sn-glycero-3-phosphocholin were purchased from Avanti. Liposomes were prepared in Ringer solution without Ca^2+ (115 mM NaCl, 2.5 mM KCl, 1 mM NaHCO3, 10 mM HEPES pH7.4, 1 mM MgCl2) and homogenized using a Lipsofast (Avestin) with a […]. Triton X-100 was added to the liposomes to a final concentration of 1% (v/v). Protein was added to liposomes to a calculated lipid-to-protein ratio (LPR) of 10 unless stated otherwise. The detergent was removed using 400 mg ml^−1 Bio Beads (BioRad) overnight at 4 °C in a rotary shaker. Proteoliposomes were frozen in liquid nitrogen and kept at −80 °C until use. Proteoliposomes were diluted 1:5 in Ringer solution without Ca^2+, sonicated five times and then applied to the sensors by centrifugation (30 min, 3,000 g, 4 °C). Non-activating buffer was Ringer solution without Ca^2+ as described unless specified otherwise, and activating buffer contained the substrate of interest. In most instances we used a single-solution exchange experiment. In this case proteoliposomes, immobilized on the supported membrane, are kept in non-activating buffer as specified. At the beginning of the experiment the non-activating buffer is replaced with fresh identical non-activating buffer, and after 1 s, activating buffer (same buffer containing substrate) is added. After another second, the buffer is replaced with non-activating buffer again. Current response is recorded throughout the entire 3 s. For competition or inhibition, the respective compound was present in non-activating and activating solutions. Each experiment was performed on at least two individual sensors. On each sensor each measurement consists of three technical replicates where the mean is calculated. KD values were determined as described previously. Briefly, the binding current induced by 100 µM NPA was recorded in the presence of different concentrations of the substrate under investigation ranging between 0 µM and 1,000 µM present in the activating solution and the non-activating solution (Extended Data Fig. 5b). […] The maximum peak current was then plotted as a function of the concentration of the substrate under investigation and plotted against the degree of inhibition and fitted with a one-site binding model using GraphPad Prism V10.4.1 The half maximal concentration corresponds to the KD of the substrate under investigation.

Assay [1] has as its target T2, PIN8 (Arabidopsis thaliana, UniProt Q9LFP6).
T2 construct: made in house
T2 sequence (Q9LFP6 1-367): T1 sequence (Q9LFP6 1-367)
Briefly: SSM electrophysiology, KD by inhibition of the NPA binding current. Conditions: for Kd: sheet F2A (Fig. 2a, KD of substrate binding). How it is done: as §1

The target of assay [2] is T2, PIN8. Nature of the assay: Xenopus oocyte efflux assay, PIN8. The conditions noted are these: [3H]-IAA export by PIN8 from oocytes, individual experiments. It counts as cell-based. How it is done:
Oocyte efflux experiments were carried out as described[12],[20],[26]. Briefly, oocytes were injected with 150 ng transporter complementary RNA without or with 75 ng kinase cRNA. [^3H]-IAA (25 Ci mmol^−1) and [^3H]-4-CPA (37.7 Ci mmol^−1) was purchased from RC Tritec. [^3H]-2,4-D (25 Ci mmol^−1) was purchased from ARC. Oocytes were injected with substrate to reach an internal concentration of 1 µM, corresponding to 100%. Residual radioactivity was determined for each individual oocyte by liquid scintillation counting after the time points indicated and are expressed relative to the initial 100%. Each time point represents the mean and s.e. of ten oocytes. To calculate the relative transport rate in percentage per minute, linear regression was performed. Each data point in Fig. 1b,c and Extended Data Fig. 2b,e represents the transport rate of one biological replicate using oocytes collected from different Xenopus females.

For assay [3], the system named is A. thaliana stem segments of pin1 mutants. Briefly: Arabidopsis stem transport assay, pin1 mutant. It counts as in vivo, Arabidopsis thaliana. Conditions: sheet EDF2H. How it is done: Arabidopsis stem transport assays were carried out as described. Briefly, 2 cm stem sections were cut above the rosette of 5-week-old plants and placed in inverted orientation into auxin transport buffer containing 500 pM IAA, 1% (wt/vol) sucrose, 5 mM 2-(N-morpholino)ethanesulfonic acid, pH 5.5 with or without 100 μM NPA. After 2 h the stems were transferred into auxin transport buffer containing 417 nM [^3H]-IAA or [^3H]-2,4-D as a substrate in the absence and presence of NPA. After 2 h, 5 mm segments were dissected, and the substrate was quantified using a liquid scintillation counter.

As for `O=C(O)COc1ccc(Cl)cc1` [4-CPA, 4-chlorophenoxyacetic acid], the Peak current on A. thaliana PIN8 (2 mM 4-CPA, absence of NPA) was 6.735 nA and 9.149 nA; on A. thaliana PIN8 (2 mM 4-CPA, presence of 20 µM NPA) it was 3.357 nA; at A. thaliana PIN8 (WT, 5 µM substrate) it was 0.07132 nA and 0.09263 nA and 0.01805 nA; on A. thaliana PIN8 (WT, 20 µM substrate), 0.2459 nA and 0.3985 nA and 0.3482 nA; at A. thaliana PIN8 (WT, 50 µM substrate), 0.634 nA and 0.9337 nA and 0.8708 nA; on A. thaliana PIN8 (WT, 100 µM substrate) it was 1.233 nA and 1.738 nA and 1.591 nA. The Peak current was 3.698 nA and 5.58 nA and 4.779 nA at A. thaliana PIN8 (WT, 500 µM substrate); 5.355 nA and 8.269 nA and 6.9634 nA at A. thaliana PIN8 (WT, 1000 µM substrate); 7.157 nA and 9.571 nA and 9.556 nA on A. thaliana PIN8 (WT, 2000 µM substrate). For the same molecule, the EC50 at A. thaliana PIN8 came out at 800 ± 200 µM. Further, the “maximal current Imax” value at A. thaliana PIN8 was determined as 12 ± 2 nA. On PIN8 [1] (5 µM substrate, 100 µM NPA, individual sensors, read-out: Rel. Inhibition of NPA peak currents), the inhibition at 5 µM is 3.03%. For the same molecule, the inhibition at 20 µM on PIN8 [1] (20 µM substrate, 100 µM NPA, individual sensors, read-out: Rel. Inhibition of NPA peak currents) is 9.7%. The inhibition at 50 µM on PIN8 [1] (50 µM substrate, 100 µM NPA, individual sensors, read-out: Rel. Inhibition of NPA peak currents) turned out to be 16%. Further, the inhibition at 100 µM on PIN8 [1] (100 µM substrate, 100 µM NPA, individual sensors, read-out: Rel. Inhibition of NPA peak currents) is 24.7%. The inhibition at 500 µM on PIN8 [1] (500 µM substrate, 100 µM NPA, individual sensors, read-out: Rel. Inhibition of NPA peak currents) was found to be 58.6%. The inhibition at 1000 µM at PIN8 [1] (1000 µM substrate, 100 µM NPA, individual sensors, read-out: Rel. Inhibition of NPA peak currents) was 73.5%. At PIN8 [1] (2000 µM substrate, 100 µM NPA, individual sensors, read-out: Rel. Inhibition of NPA peak currents), the inhibition at 2000 µM came to 82.1%. In addition, the inhibition at 5000 µM at PIN8 [1] (5000 µM substrate, 100 µM NPA, individual sensors, read-out: Rel. Inhibition of NPA peak currents) was 96.6%. For the same molecule, the “lower binding affinity compared to IAA” value at PIN8 [1] (KD compared to IAA) was ~ 8 fold. The Kd on PIN8 [1] (Peak current, individual sensors) was 319 µM and 330 µM and 262 µM.

Consider `O=C(O)Cc1c[nH]c2ccccc12` [IAA, indole-3-acetic acid], for which the EC50 at A. thaliana PIN8 is 250 µM and 254 µM. Besides, the “maximal current Imax” value on A. thaliana PIN8 worked out at 18 ± 3 nA. Further, the Peak current at A. thaliana PIN8 (WT, 5 µM substrate) is 0.8096 nA and 0.6401 nA and 0.949 nA; at A. thaliana PIN8 (WT, 20 µM substrate) it was 1.842 nA and 1.724 nA and 2.164 nA; on A. thaliana PIN8 (WT, 50 µM substrate), 3.368 nA and 3.292 nA and 4.115 nA; on A. thaliana PIN8 (WT, 100 µM substrate) it was 4.516 nA and 4.8122 nA and 5.921 nA; at A. thaliana PIN8 (WT, 500 µM substrate), 9.827 nA and 10.2734 nA and 12.6135 nA; on A. thaliana PIN8 (WT, 1000 µM substrate), 13.1379 nA and 13.1579 nA and 16.4113 nA. Besides, the Peak current at A. thaliana PIN8 (WT, 2000 µM substrate) is 14.7357 nA and 15.0585 nA and 18.9117 nA. The “Peak current (nA)” value at A. thaliana PIN8 ([IAA] 5 µM) was 0.04999 nA and 0.08856 nA and 0.0843 nA; on A. thaliana PIN8 ([IAA] 50 µM), 0.4222 nA and 0.6123 nA and 0.4745 nA; at A. thaliana PIN8 ([IAA] 100 µM) it was 0.6662 nA and 0.8986 nA and 0.7119 nA; on A. thaliana PIN8 ([IAA] 500 µM), 1.469 nA and 1.771 nA and 1.558 nA; on A. thaliana PIN8 ([IAA] 1000 µM) it was 1.848 nA and 2.271 nA and 1.967 nA; at A. thaliana PIN8 ([IAA] 2000 µM), 2.237 nA and 2.442 nA and 2.41 nA. For the same molecule, the “Rel. IAA transport rate” value at PIN8 [2] (NPA + (10 μM)) was 0.4862 % exported/min and 0.4056 % exported/min and 0.4406 % exported/min; on PIN8 [2] (NPA -), 2.069 % exported/min and 2.225 % exported/min and 1.917 % exported/min. The inhibition at 5 µM on PIN8 [1] (read-out: Rel. Inhibition of NPA peak currents, 5 µM substrate, 100 µM NPA, individual sensors) worked out at 14.1%. Also, at PIN8 [1] (read-out: Rel. Inhibition of NPA peak currents, 50 µM substrate, 100 µM NPA, individual sensors), the inhibition at 50 µM is 57%. In addition, the inhibition at 100 µM on PIN8 [1] (read-out: Rel. Inhibition of NPA peak currents, 100 µM substrate, 100 µM NPA, individual sensors) was 77.9%. For the same molecule, the inhibition at 250 µM at PIN8 [1] (read-out: Rel. Inhibition of NPA peak currents, 250 µM substrate, 100 µM NPA, individual sensors) was determined as 84.7%. Further, the inhibition at 500 µM at PIN8 [1] (read-out: Rel. Inhibition of NPA peak currents, 500 µM substrate, 100 µM NPA, individual sensors) was 94.3%. For the same molecule, the inhibition at 1000 µM on PIN8 [1] (read-out: Rel. Inhibition of NPA peak currents, 1000 µM substrate, 100 µM NPA, individual sensors) stood at 84.7%. Further, at PIN8 [1] (individual sensors, read-out: Peak current), the Kd is 38.8 µM and 54 µM and 24.3 µM. Moreover, the CPM is 103 CPM and 109 CPM and 91 CPM and 134 CPM and 78 CPM in assay [3] (pin1, + NPA, Segment 2, single stems); 70 CPM and 80 CPM and 98 CPM and 135 CPM and 76 CPM in assay [3] (pin1, + NPA, Segment 3, single stems); 119 CPM and 97 CPM and 69 CPM and 107 CPM and 82 CPM in assay [3] (pin1, - NPA, Segment 3, single stems).
